# Laboratory results from patent US8143373B2, “Carbohydrate-containing pan cancer marker” (Vancouver Biotech Ltd., priority 2007, dated 2012).
# Where “and” joins values, the source holds several entries; their conditions need not be identical. Identical values can stand only once.
# Tests used:
# [1] = test system: OC-3-VGH ovarian cancer cells tumors; test: Tumor growth in nude mice implanted subcutaneously with cancer cells; format: in vivo; settings: for Percent (average tumor weight, negative control = 100) / Average of Tumor Weight: n=4; for Body Weight (individual mouse) / Tumor Weight (individual mouse): mice #1-4
# Method: Groups of four nude mice were implanted subcutaneously with 2×10^6 cells in 0.2 ml per mouse at sites near the breast for a growth period of 2-3 weeks. Treatments were performed after visible apparent growth of tumors. The radioactive labeling of the mAb was at a specific radioactivity of 12.5 μCi/mg.
# The mice were sacrificed on day 16 after treating with antibody, and the size of tumors in each mouse was determined by weight together with the body weight.
# [2] = test system: CA215 antigen on OC-3-VGH cancer cells; test: Direct binding enzyme immunoassay of RP215-HRP to OC-3-VGH cancer cell-coated wells (NaIO4 treatment, goat anti-human IgG competition); settings: for Optical Density at 450 nm / percent maximum binding: RP215-HRP 10 ug/ml + normal mouse IgG 10 ug/ml
# Method: PBS-washed OC-3-VGH cancer cells (conc. 1×10^6 cells/ml) were incubated with 100 mM NaIO4 for 30 minutes, the cells were washed with PBS containing 0.5% BSA, and then dried on microwells at 1×10^4 cells/well. The cell-coated microwells were then blocked with 0.5% BSA in PBS and direct binding enzyme immunoassays using RP215 labeled with horseradish peroxidase (RP215-HRP) were performed at 37° C. for one hour followed by extensive washes and color development with TMB substrate. For comparison wells coated with cancer cells without NaIO4 treatments served as control.
# CA215 = test: Sandwich EIA with coated RP215 forms, OC-3-VGH shed medium and HRP-labeled RP215; format: binding, human; settings: for Relative Signal Intensity in Sandwich EIA: antibody coated at 5 μg/ml, 450 nm
# Method: Each was coated separately at 5 μg/ml overnight in microwells. The microwells were treated with concentrated cell culture shed medium of OC-3-VGH cells (to supply CA215) and then with HRP-labeled RP215 as a detection antibody. The detection antibody was incubated with each well for 60 min. at 37° C. After 30 min, TMB substrate was added for 20 min. of color development and, after stopping the reaction, the intensity determined at 450 nm in an ELISA reader. In some cases, 10 μg/ml human IgG was added to the wells, but this had no evident effect on the signal intensity.
# Goat Anti-human IgG = test: Binding of well-coated antibodies to detecting antibody; settings: for Relative Intensity: detecting antibody Goat Anti-human IgG, hRP215 adjusted to 100%
# Source text: In row 2, when goat anti-human IgG is used as a detector, and humanized RP215 was set at 100%, decreased binding was shown for human IgG, and very reduced binding for the chimeric or murine RP215.
# [3] = test system: OC-3-VGH ovarian cancer cells; test: Growth of OC-3-VGH cell cultures in vitro; format: cell-based, human; settings: addition to cell cultures of OC-3-VGH ovarian cancer cells
# Method: Cell culture growth was also not inhibited either by human IgG or goat anti-human IgG in vitro up to a concentration of 200 μg/ml in the cell culture.
# Goat Anti-mouse IgG = test: Binding of well-coated antibodies to detecting antibody; settings: for Relative Intensity: detecting antibody Goat Anti-mouse IgG, RP215 adjusted to 100%
# Source text: In row 1, the results were normalized to 100% for the interaction between RP215 and goat anti-mouse IgG. As shown in the first row, goat anti-mouse IgG bound comparatively poorly to the humanized or chimeric human forms.
# Goat Anti-human IgFc = test: as above
# Goat Anti-human IgFab = test: as above
# [4] = test system: CA215 present in OC-3-VGH cancer cells; test: Secondary two-step ELISA, direct binding of anti-immunoglobulin antibodies to CA215 in OC-3-VGH cancer cells; parameters: species or system human; settings: 1.125 ug/ml primary antibody; ODn = corresponding normal mouse IgG concentration
# Method: In this case the experiment was conducted as a secondary two-step ELISA with primary antibodies incubated with sample overnight at room temperature, followed by goat antibody Anti-Mouse IgG-ALP, for 1 hour at 37° C. ODs is the OD value of sample and ODn is the OD value of corresponding normal mouse IgG concentration.
# [5] = 60 mg/Kg, sacrificed day 16 after treating
# [6] = high dose 10 mg/Kg (I131-labeled: + 125 μCi), day 16, 10 mg/kg, in g (unit assumed)
# [7] = low dose 2 mg/Kg (I131-labeled: + 25 μCi), day 16, 2 mg/kg, in g (unit assumed)
molecule,measurement,setting,value
"O=P1(N(CCCl)CCCl)NCCCO1 (centres unmarked) [Cyclophosphonamide, reference compound]","Percent (average tumor weight, negative control = 100)","[1]; 60 mg/Kg, day 16",73.2%
same,Average of Tumor Weight,"[1]; 60 mg/Kg, day 16, in g (unit assumed)",0.09575
same,Body Weight (individual mouse),[1]; [5],21.18 (2×) and 21.42 and 23.37
same,Tumor Weight (individual mouse),[1]; [5],0.098 (2×) and 0.096 and 0.091
RP215-HRP: RP215 labeled with horseradish peroxidase,binding between RP215-HRP and cancer cell-coated wells treated with periodate (in words),[2]; 100 mM NaIO4 for 30 minutes vs untreated cells,drastically reduced
same,Optical Density at 450 nm,[2]; with NaIO4 treatment,0.797
same,percent maximum binding,[2]; with NaIO4 treatment,37%
same,Optical Density at 450 nm,[2]; without NaIO4 treatment,2.153
same,percent maximum binding,[2]; without NaIO4 treatment,100%
RP215: monoclonal antibody (mouse IgG) to tumor-associated antigen CA215; hybridoma deposited as ATCC HB10095,Relative Signal Intensity in Sandwich EIA,CA215; 10 μg/ml Human IgG,100%
same,Relative Signal Intensity in Sandwich EIA,CA215; No Human IgG,100%
same,Body Weight (individual mouse),[1]; [6],21.43 and 23.05 and 22.15 and 23.56
same,Tumor Weight (individual mouse),[1]; [6],0.088 and 0.077 and 0.095 and 0.086
same,"Percent (average tumor weight, negative control = 100)","[1]; high dose 10 mg/Kg (I131-labeled: + 125 μCi), day 16",66.2%
same,Average of Tumor Weight,"[1]; high dose 10 mg/Kg (I131-labeled: + 125 μCi), day 16, in g (unit assumed)",0.0865
same,Body Weight (individual mouse),[1]; [7],21.76 and 20.57 and 21.98 and 22.64
same,Tumor Weight (individual mouse),[1]; [7],0.103 and 0.122 and 0.080 and 0.104
same,"Percent (average tumor weight, negative control = 100)","[1]; low dose 2 mg/Kg (I131-labeled: + 25 μCi), day 16",78.2%
same,Average of Tumor Weight,"[1]; low dose 2 mg/Kg (I131-labeled: + 25 μCi), day 16, in g (unit assumed)",0.1022
same,tumor growth in vivo (in words),[1]; nude mice,successful in inhibiting tumor growth in vivo
same,binding to goat anti-human IgG (in words),"Goat Anti-human IgG; antibody-coated microwells, alkaline phosphatase-labeled goat anti-human IgG",no binding
same,Relative Intensity,Goat Anti-human IgG,<0.5%
same,effect on growth of cell cultures (in words),[3],no effect on growth
same,binding to goat anti-mouse IgG (in words),Goat Anti-mouse IgG; antibody-coated microwells,strong binding
same,Relative Intensity,Goat Anti-mouse IgG,100%
same,Relative Intensity,Goat Anti-human IgFc,<0.5%
same,Relative Intensity,Goat Anti-human IgFab,<1%
same,ODs405/ODn405,[4],11.6
chRP215: chimeric RP215 mAb with human constant regions and the murine variable regions of RP215,Relative Signal Intensity in Sandwich EIA,CA215; 10 μg/ml Human IgG,15.4%
same,Relative Signal Intensity in Sandwich EIA,CA215; No Human IgG,14.5%
same,binding affinity to CA215 compared with RP215 (in words),CA215; sandwich EIA,lower binding affinity
same,Relative Intensity,Goat Anti-human IgG,~10%
same,Relative Intensity,Goat Anti-mouse IgG,~7%
same,Relative Intensity,Goat Anti-human IgFc,45%
same,Relative Intensity,Goat Anti-human IgFab,10%
